Source: patent publication US10584361B2, “Algae having intracellular lipid particles and high lipid content” (THE UNIVERSITY OF AKRON, priority 2012, dated 2020)
Where two headings read alike, the source gives them in different places.

Tests used:
algae [1] = assay: Lipid enhancement with glycerol (algae re-suspended in salts solution); type: cell-based; conditions: 0.5, 1 and 5 g/L glycerol (all systems), within 24 h; pH 5; then decreased slightly
Protocol: The specific procedure was: • i. […] Rotate 20 min at 40% output (Glas-Col) • vi. Centrifuge at 3620 g for 5 min • vii.
Algae were first cultured and then collected by centrifuge.
The thin layer chromatography analysis was performed the same as in Experiment 2.

algae [2] = conditions: 0.5 g/L sodium acetate, within 6 hours, increased from 40%; pH 5; then decreased
Protocol: For the dry weight analysis, algal cells were collected by centrifuging at 300 g for 10 min. After washing with deionized water once, the precipitant of the sample was transferred to pre-weighed aluminum plates and dried to a constant weight in an oven at 70 degrees C.
For the lipid analysis, the algal cells were collected at 300 g for 10 min. Then the lipid content of the precipitant from the sample was analyzed with the same lipid extraction procedure, which is modified from the Folch method. The specific procedure was: • i. Add 8 mL of chloroform and methanol mixture (2:1, v/v) to the sample • ii. Add 0.1 mL of HCl (5 M) to the sample • iii. Gradually add deionized water to the sample until a second phase appears • iv. Vortex for 3 min at full power (Vortex-Genie 2) • v. Rotate 20 min at 40% output (Glas-Col) • vi. Centrifuge at 3620 g for 5 min • vii. Collect the lower chloroform phase into a pre-weighed drying vessel • viii. Add 5 mL of chloroform and methanol mixture (2:1, v/v) to the sample and repeat steps iv, v, vi and vii • ix. Air dry the vessel to a constant weight and measure the weight.
Algae were first cultured and then collected by centrifuge. After washing with deionized water once, algae were re-suspended into salts solution (Table 1). […] During the batch studies, the pH of all systems was maintained at 5 with 0.05 mol/L NaOH and 0.05 mol/L HCl. […]

Compound | lipid content (algae [1]) | lipid content (algae [2])
OCC(O)CO [glycerol] | about 40 % of the dry weight | –
CC(=O)[O-].[Na+] [sodium acetate] | – | 65 % of the dry weight
